In patent US7384758B2, “Bioluminescent protease assay with modified aminoluciferin or derivatives thereof” (Promeaga Corporation, priority 2002, dated 2008):
Where “and” joins values, the source holds several entries; their conditions need not be identical. Identical values can stand only once.

How the values were obtained:
[1] = target: T1, trypsin (Bos taurus, UniProt P00760); test: trypsin titration, homogeneous luminescent vs fluorescent substrate assay (Examples 1 and 2); format: biochemical; details: for limit of detection (trypsin): 3 S.D. above background noise, amount of trypsin
T1 construct: gene PRSS1
T1 sequence (P00760 24-246): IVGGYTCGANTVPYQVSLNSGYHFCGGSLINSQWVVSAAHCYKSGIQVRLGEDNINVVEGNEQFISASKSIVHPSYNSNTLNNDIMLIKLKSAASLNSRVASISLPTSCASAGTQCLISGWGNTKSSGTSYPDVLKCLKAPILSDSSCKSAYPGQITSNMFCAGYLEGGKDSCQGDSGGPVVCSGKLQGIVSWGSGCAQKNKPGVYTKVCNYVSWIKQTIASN
Description: To compare the limit of detection for a luminescence-based and a fluorescence-based assay for trypsin, two substrates, Lys-aminoluciferin (Cbz-modified lysinyl-aminoluciferin) and Arg-Rho-110 (Molecular Probes, Catalog no. R6501), were used. Substrate was resuspended in 100 mM Hepes, pH 7.9, at a concentration of 10 mM and stored at −20° C. The thawed Lys-aminoluciferin substrate, thermostable luciferase (5.2 mg/ml stock), and ATP (0.1 M stock) were diluted in buffer (50 mM HEPES, pH 7.9, 10 mM MgSO4, 1 mM EDTA, pH 8.2 and 0.1% prionex) to make a stock that was 10× the final concentration. The 10× stock was 200 μM Lys-aminoluciferin, 200 μg/ml luciferase, and 2.0 mM ATP. This 10× stock was incubated for at least 90 minutes to eliminate any free aminoluciferin.
Trypsin was prepared for titration as follows: 1 μg/μl stock solution was diluted to 10 ng/50 μl in the same buffer as above (50 mM HEPES, pH 7.9, 10 mM MgSO4, 1 mM EDTA, pH 8.2 and 0.1% prionex). This […] trypsin solution was serially diluted 5 fold to 2 ng, 0.4 ng, 0.08 ng, 0.016 ng, 3.2 pg, 0.64 pg, 0.128 pg, 0.0256 pg and 0.005 pg. The trypsin dilutions were added to two 96-well plates in replicates of 8 at 50 μl per well. Pipette tips were changed for each row to avoid enzyme carryover. Two columns (16 wells) contained buffer only without trypsin.
One of the two plates of the trypsin dilutions was then used to test the Lys-aminoluciferin substrate (FIG. 3). Samples were tested in quadruplicate. The 10× substrate/luciferase/ATP mix was further diluted 5 fold in the above-described buffer to make a 2× stock. 50 μl of this 2× stock was added to each well containing 50 μl of the trypsin titration such that the final 100 μl volume contained 20 μM Lys-aminoluciferin, 200 μM ATP, and 20 μg/ml of thermostable luciferase in buffer (50 mM HEPES, pH 7.9, 10 mM MgSO4, 1 mM EDTA, pH 8.2 and 0.1% prionex). The substrate mix was also added to 12 of the 16 wells containing buffer only without trypsin. The remaining 4 wells were left with buffer only (no substrate mix). This plate was incubated at room temperature and read by luminometer at 45 minutes and 3 hours after adding the substrate mix to the trypsin.
The second plate of trypsin dilutions was used to test the Arg-Rho-110 substrate (FIG. 4). The Arg-Rho-110 substrate was tested at final concentrations of 10 μM and 2.5 μM. 2× stocks of 20 μM and 5 μM were prepared by diluting the substrate in 50 mM HEPES, pH 7.9, 10 mM MgSO4, 1 mM EDTA, pH 8.2 and 0.1% prionex. To each well of the plate containing 50 μl of the trypsin titration was added 50 μl of either the 20 μM or 5 μM 2× stocks of Arg-Rho-110 substrate. The 20 μM stock was added to the first four rows (final concentration of 10 μM in rows A-D) and the 5 μM stock was added to the second four rows (final concentration of 2.5 μM in rows E-H). The substrate mix was also added to 12 of the 16 wells containing buffer only without trypsin. The remaining 4 wells were left with buffer only (no substrate mix). The Arg-Rho-110 plate was incubated at room temperature in the dark for 4.5 hours and read on a fluorimeter.
The signal to noise was calculated as signal-background (no trypsin)/S.D. of background. The limit of detection was determined as 3 S.D. above background noise.
To determine the effect of an overnight pre-incubation of substrate with luciferase, ATP and buffer prior to adding trypsin, a substrate/luciferase/ATP mix was incubated overnight in the dark, at room temperature. […]

[2] = test system: Jurkat cells; test: caspase activity in Jurkat cells induced to undergo apoptosis with anti-FAS antibody (Example 4); format: cell-based; details: for sensitivity greater than the Arg-Rho110: Jurkat cells, FIG. 11
Description: The DEVD-aminoluciferin caspase substrate and the DEVD-Rho-110 caspase substrate were used to measure caspase activity in Jurkat cells induced to undergo apoptosis with anti-FAS antibody. DEVD-luciferin and luciferase were prepared for pre-incubation prior to use in the assay. Substrate, ATP, MgSO4, prionex and luciferase were diluted from the same stock as in Example 3 to the same 2× concentration, except that the components were diluted in autoclaved water rather than Apo-ONE™. This mixture was incubated overnight in the dark (covered in foil).
The next day, Jurkat cells, grown in RPMI-1640 media with 10% Fetal Bovine Serum (FBS) to a density of 5×10^5 cells/ml, were treated with anti-FAS antibody. To one vial of 8 ml of media was added 1.6 μl of antibody (1:5000 dilution); a second vial contained 8 ml of media and no antibody. Cells were incubated for 4 hours at 37° C., in 5% CO2 Cells were then centrifuged and resuspended in 12.5 ml of RPMI-1640 to a density of 3.2×10^5 cells/ml, then diluted 1:1 with Apo-ONE™ buffer for 1.6×10^5 cells/ml, or 8,000 per 50 μl.
Two 96-well plates were prepared such that on each, the first column was left empty, and 50 μl of RPMI-1640:Apo-ONE™ solution was placed in each of the remaining wells. To the first four rows of each plate, […] of the “induced” cell solution (8,000 cells) was added and the cells then serially diluted from 8,000 cells/well, to 4,000 cells/well and so on, down to 7.8 cells/well. The twelfth column was left without cells and with only 50 μl of RPMI-1640:Apo-ONE™ solution. […]
Signal to noise was calculated (signal minus background (no cell control)/S.D. of background) and the limit of detection was determined as 3 S.D. above the background noise.
One of the two plates was treated with 50 μl of either DEVD-aminoluciferin/luciferase mix or with DEVD-Rho-110/Apo-ONE™ (Promega G778B and G777B). Each plate was mixed on a plate shaker for 30 seconds then incubated at room temperature and read on either a Dynex luminometer or Fluoroskan plate reader at 1 hour, 2 hours, 4 hours and one day later.

[3] = target: T2, caspase 3 (Homo sapiens, UniProt P42574); test: caspase titration, luminescent vs fluorescent substrate in Apo-ONE buffer (Example 3); format: biochemical
T2 construct: approximately 10 mU/ng protein with >75% in active conformation; purchased Upstate Biotech 14-264
T2 sequence (P42574 29-175 limits assumed): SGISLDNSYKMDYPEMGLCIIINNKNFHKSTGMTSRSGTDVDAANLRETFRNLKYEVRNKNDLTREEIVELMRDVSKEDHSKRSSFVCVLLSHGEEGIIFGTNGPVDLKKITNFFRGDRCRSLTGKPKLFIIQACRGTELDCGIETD
T2 sequence (P42574 176-277 limits assumed): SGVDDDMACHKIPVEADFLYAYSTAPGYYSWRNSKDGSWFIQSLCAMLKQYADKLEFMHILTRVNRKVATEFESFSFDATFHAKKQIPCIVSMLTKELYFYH
Description: To conduct a direct comparison between luminescent and fluorescent substrates for caspase 3, DEVD-Rho-110 and DEVD-aminoluciferin were employed. The DEVD-aminoluciferin substrate/luciferase/ATP mixture was prepared first and preincubated prior to the enzyme assay to eliminate free aminoluciferin. To 1.25 ml of Apo-ONE™ buffer (Promega) was added 10 μl of DEVD-luciferin (10 mM stock), 10 μl of ATP (0.1 M stock), 50 μl of MgSO4 (1 M stock), 50 μl of prionex (10% stock), and 48 μl of luciferase (5.2 mg/ml stock). The volume was brought up to 2.5 ml with nanopure, autoclaved water to make a 2× stock of 40 μM DEVD-luciferin, 400 μM ATP, 0.2% prionex, and 100 μg/ml luciferase. This stock was incubated overnight at room temperature.
Caspase (Upstate Biotech, Cat. No.14-264; approximately 10 mU/ng protein with >75% in active conformation) was diluted 550 fold in a 50/50 mixture of Apo-ONE™ buffer/RPMI-1640 culture media, from 1 U/μl to 1.8 mU/μl. 50 μl of Apo-One™ buffer/RPMI-1640 media was added to each well in two 96-well plates. Then, 5.5 μl of the caspase stock was added to the 50 μL of Apo-One™ buffer/RPMI-1640 media for a concentration of about 10 mU/50 μl. Ten serial dilutions of 10 fold each were carried out in the wells by serially transferring 5.5 μl of caspase solution into the 50 μl of the buffer/media mix. The final caspase concentrations were 10 mU, 1 mU, 0.1 mU, 0.01 mU, 0.001 mU, 0.1 μU, 0.01 μU, 0.001 μU, 0.1 nU, and 0.01 nU/well. The last two columns were buffer/media only without caspase.
To one plate of caspase dilutions, 50 μl of the DEVD-aminoluciferin substrate mixture was added to each well for final concentrations of 20 μM DEVD-aminoluciferin, 200 μM ATP, 10 mM MgSO4, 0.1% prionex, and 50 μg/ml luciferase. […] Readings were taken for each plate at 1 hour, 3 hours, and 5 hours on a luminometer and fluorimeter, respectively.
Signal to noise was calculated as above and the limit of detection was determined as 3 S.D. above the background noise.

[4] = test system: thermostable firefly luciferase; test: luminescent reaction with luciferin or aminoluciferin as luciferase substrate (FIG. 1); format: biochemical; details: substrate for thermostable firefly luciferase, FIG. 1
From the text: FIG. 1 depicts relative light units (RLU) for luciferin or aminoluciferin as a substrate for a thermostable firefly luciferase in a luminescent reaction.

Molecule: Cbz-modified lysinyl-aminoluciferin [Lys-aminoluciferin]
- limit of detection (trypsin) [1]: 3.0 pg
- sensitivity greater than Arg-Rho-110 ([1]; depending on the time of the reading, FIG. 9): 3-10 fold and 3 to 10 fold
- less enzyme detected / more sensitive than fluorescence-based assay ([1]; luminescent vs rhodamine-110 trypsin substrate): 4-10 times

Molecule: N=C(N)NCCCC(NC(=O)OCc1ccccc1)C(=O)Nc1ccc2c(c1)Oc1cc(NC(=O)C(CCCNC(=N)N)NC(=O)OCc3ccccc3)ccc1C21OC(=O)c2ccccc21 (stereo not drawn) [Arg-Rho-110, reference compound]
- limit of detection (trypsin) [1]: 12 to 30 pg
- limit of detection (trypsin) ([1]; listed as arginine2-rhodamine-110): 12 to 30 pg

Molecule: N-(Z-Asp-Glu-Val-Asp)-aminoluciferin [DEVD-aminoluciferin]
- sensitivity greater than the Arg-Rho110 ([2]; 1 hour time point): 10 fold
- sensitivity greater than the Arg-Rho110 ([2]; at 4 hours): about 2 fold
- limit of detection of caspase expressing cells ([2]; at 1 hour): 15 cells
- more sensitive than DEVD-Rho-110 ([3]; FIG. 10, Example 3): 10-100 times
- sensitivity greater than the Arg-Rho110 ([3]; depending on the time of the readings, FIG. 10): 50-300 fold
- limit of detection (purified caspase) ([3]; substrate for caspase 3 and 7, purified caspase, 3 S.D. above background): 0.2 to 0.5 μU

Molecule: O=C(O)[C@H]1CSC(c2nc3ccc(O)cc3s2)=N1 [luciferin]
- Km [4]: ~0.6 µM
